Experimental findings from US5608095A, “Alkyl-4-silyl-phenols and esters thereof as antiatherosclerotic agents” (Hoechst Marion Roussel, Inc., priority 1996, dated 1997) are described below.

The test system of data set [1] is oxidation of serum lipids. Briefly: TBARS assay, rat serum. To be noted: po, 96 h, read-out: TBARS, percent of control. It is filed as in vivo, male Sprague-Dawley rats. The source says: (§1) A typical experiment consisted of 4-6 groups of rats (N=5 per group) with 1 group being a control which received no MDL compound and the other groups being treated with 0.3% MDL compound. Some of the compounds were either repeated at 0.3% or evaluated again at the lower dose of 0.1%. Male Sprague-Dawley rats, 50-100 g, (Harlan Laboratories, Indianapolis, Ind.) were housed in groups of 5, fed ad libitum water and Purina Rodent chow (#5002) with or without MDL compound as a dietary admixture for 4 days. Dietary admixtures (0.3%) were made by mixing 1.2 grams of an MDL compound with 400 grams of Purina rodent chow (#5002). The MDL compound was mixed with approximately 50 grams of food using a mortar and pestle. This was added to the remainder of the food and mixed for 3 hours on a rotary mixer. In the morning of day 5, non-fasted rats were anesthetized with carbon dioxide, and blood was collected by cardiac puncture. Rats were sacrificed by cervical dislocation. Body weights and liver weights were recorded in grams. Food consumption was recorded as grams.cndot.day^-1.cndot.rat^-1. Deaths were recorded as mortality. Aliquots of fresh serum were used for clinical chemistries, thiobarbituric acid reactive substances (TBARS) and conjugated diene measurements. Aliquots of serum (~0.5mL) and whole livers were frozen at -20° C. for compound and metabolite concentration determination at a later time.
In this assay the oxidation of serum lipids is initiated with CuSO4, resulting in the formation of aldehydes, such as malondialdehyde (MDA). Upon incubation with thiobarbituric acid, the absorbance of the aldehydes can be detected at 530-540 nm. As stated in the previous example, TBARS values which are lower than control serum values indicate the relative ability of a test compound to inhibit the oxidation of lipids in a sample. TBARS were measured as follows: 100 μL of serum were mixed with 400 μL of a 5 mmol CuSO4 solution and incubated at 37° C. for 3 hr. The reactions were stopped by addition of 1.0 mL of 20% trichloroacetic acid. Then 1.0 mL of 0.67% thiobarbituric acid in 0.05N sodium hydroxide was added, mixed, and the samples incubated for 30 min at 90° C. Samples were centrifuged briefly to pellet undissolved material, and the supernatants were transferred to a 96-well microtiter plate. Absorbances were measured at 540 nm using a Biotek model EL311 microplate reader. The nmoles of MDA produced were calculated from a standard curve of 0 to 10 nmoles of MDA prepared from malonaldehyde bis(dimethylacetal). Serum samples from treated rats were compared to serum samples from control rats that received no MDL compound.

The next data set has as its system ICAM-1. In words: Cell surface ELISA for ICAM-1 in human umbilical vein endothelial cells (HUVEC), TNF-alpha induced. It is filed as cell-based. To be noted: 50 μM, average of two runs, numbers in parentheses represent negative values. The procedure: Cell Surface ELISA for VCAM-1/ICAM-1
Proliferating human umbilical vein endothelial cells (HUVEC) or human aortic smooth muscle cells (HASMC) from Clonetics (San Diego, Calif.) were plated onto 96-well plates in 100 μL medium per well at 20,000 cells per cm^2. The cultures were maintained in growth medium (EGM or SMGM2, Clonetics, San Diego, Calif.) for two days prior to addition of cytokines or drugs. Cytokines plus or minus compounds were added for 20 to 24 hours prior to analysis for adhesion molecule levels. Tumor necrosis factor (Genzyme, Cambridge, Mass.) was added to cultures at 500-1000 units/mL. Interleukin-4 (GIBCO-BRL, Gaithersburg, Md.) was added to cultures at 100-200 pg/mL. (Additions were made by transferring 100 [μL of cytokines plus compounds serially diluted on a separate 96-well plate into the plates containing cells. The medium on the cultures was not exchanged prior to addition of effectors). The culture medium was removed, and the monolayers were washed twice with Hanks buffered saline solution (HBSS) at room temperature. The primary antibody (anti-human VCAM-1 from Upstate Biotechnology, Inc., Lake Placid, N.Y. or anti-human ICAM-1 from Immunotech, Inc., Westbrook, Me.) was added to each well (1 μg/mL in HBSS plus 5% newborn calf serum, GIBCO-BRL, Gaithersburg, Md.) and incubated at 37° C. for 1 hr. The wells were washed twice with HBSS, then 100 μL of a 1/1000 dilution of goat anti-mouse IgG conjugated to horse radish peroxidase (BioRad, Hercules, Calif.) in HBSS plus 5% newborn calf serum was added to each well and incubated for 1 hr at 37° C. The wells were washed three times with HBSS, then 100 μL of TMB substrate (BioRad, Hercules, Calif.) was added to each well. The reaction was stopped after blue color developed by addition of 50 μL of 1N H2 SO4. Absorbance is measured at 450 nm with a plate reader. IC50 values were determined from curves of absorbance values obtained from serial dilutions of compounds (dissolved in dimethyl sulfoxide).
The IC50 value is defined as the drug concentration that inhibits the cytokine-induced adhesion molecule expression by 50%. Maximal values for adhesion molecule expression in cytokine-induced cultures was […] the basal level of adhesion molecule expression (minus cytokines) in the cultures to determine the level of induction. […] Each drug concentration was tested in quadruplicate wells. Single point tests of compounds at 50 μM were assayed as described for IC50 determinations, except that the data represent the level of inhibition without correction for basal expression. (Basal adhesion molecule expression was 10-20% of the total induced expression). Table 1 summarizes the ability of various compounds of this invention to inhibit VCAM-1 using human aortic smooth muscle cells (HASMC). In these experiments, the cells were coincubated with interleukin-4 and the compounds listed about 20 hr before assaying cell surface VCAM-1 levels. Each column represents a separate experiment.
In these experiments, the cells were coincubated with tumor necrosis factor-alpha along with the indicated compounds about 20 to 24 hr before assaying cell surface adhesion molecule expression.
In general terms: ELISA stands for enzyme-linked immunosorbent assay.

The nature of data set [2]: HPLC quantitation of compound and metabolite concentration in rat serum and liver. It is filed as in vivo, male Sprague-Dawley rats. To be noted: 4 days; for concentration at 96 h: po.
From the text: as §1
Serum and liver concentrations of parent compound and the metabolites, bisphenol and diphenoquinone, were determined by reverse phase HPLC using a Waters 990 Powerline system. Livers (1 gram samples) were homogenized with 5.0 mL PBS, pH 7.4, using a Polytron tissue homogenizer at setting 5 for 20-30 seconds. Serum or liver homogenates were extracted as follows: 100μL of either serum or homogenate were added to 2.0 mL diethyl ether:ethanol (3:1) while vortexing the tube. The sample tubes were capped and centrifuged for 10 min at 5° C. at 3500 rpm in a Beckman GPKR centrifuge with a GH 3.7 rotor. The supernatants were transferred to clean tubes and dried under N2. Samples were reconstituted with 200 μL of acetonitrile:hexane:0.1M ammonium acetate (90:6.5:3.5, by vol.). Then, 100 μL were injected onto a Waters Deltapak C18-300 Å column, and eluted with an 83% acetonitrile:17% water mobile phase at a flow rate of 1.5 mL/min. Absorbances at the wavelengths of 240, 254, and 420 nm were recorded. Compound concentrations were calculated from known quantities of authentic parent compounds after correction for recovery; the range of recovery from spiked samples was 40 to 100%. The lowest detectable limit for this class of compounds was ~0.5 μg/mL. […]. Concentrations were calculated as μg/mL of serum and μg/g of liver.

The mark [3] stands for this setting: rat liver, diet 0.3%, read-out: Liver Parent = parent compound concentration.
Where [4] appears, read: rat serum, diet 0.3%, read-out: Serum Parent = parent compound concentration.
Where [5] appears, read: rat liver, diet 0.1%, read-out: Liver Parent = parent compound concentration.
Where [6] appears, read: rat serum, diet 0.1%, read-out: Serum Parent = parent compound concentration.

Molecules are shown by their SMILES. Like-named read-outs stand apart in the source and are kept apart here.

As to `CC(C)(C)c1cc(OC[Si](C)(C)c2ccccc2)cc(C(C)(C)C)c1OC(=O)CCC(=O)O` [MDL 103,076, 2,6-Di-t-butyl-4-[(dimethylphenylsilyl)methyloxy]phenol succinic acid ester], the response vs control in vivo at 0.3 % in data set [1] (Rattus norvegicus) stood at 107%. Also, the ICAM-1 % inh. in the data set on ICAM-1 stood at 76%. Also, the “Liver Parent = parent compound concentration” value in data set [2] (rat liver, diet 0.3%) came to 0 µg/g. Also, the “Serum Parent = parent compound concentration” value in data set [2] (rat serum, diet 0.3%) was determined as 0 µg/mL.

Turning to `CC(C)(C)c1cc(SC[Si](C)(C)c2ccccc2)cc(C(C)(C)C)c1OC(=O)CCC(=O)O` [MDL 103,141, 2,6-Di-t-butyl-4-[(dimethylphenylsilyl)methylthio]phenol sucinic acid ester], the response vs control in vivo at 0.3 % in data set [1] (Rattus norvegicus) amounted to 113%. For the same molecule, in the data set on ICAM-1, the ICAM-1 % inh. is reported as 79.5%. The “Liver Parent = parent compound concentration” value in data set [2] (rat liver, diet 0.3%) was 0 µg/g. Further, the “Serum Parent = parent compound concentration” value in data set [2] (rat serum, diet 0.3%) came to 0 µg/mL.

In the case of `CC(=O)Oc1c(C(C)(C)C)cc(OC[Si](C)(C)c2ccccc2)cc1C(C)(C)C` [MDL 103,377, 2,6-Di-t-butyl-4-[(dimethylphenylsilyl)methyloxy]phenol acetic acid ester], the response vs control in vivo at 0.3 % in data set [1] (rat serum, diet 0.3%, 4 days) turned out to be 71%. The concentration at 96 h worked out at 22200 ng/g in data set [2] (setting [3]) and 7720 ng/mL in data set [2] (setting [4]).

Regarding `CC(C)(C)c1cc(OC[Si](C)(C)c2ccccc2)ccc1O` [MDL 103,491, 2-t-Butyl-4-[(dimethylphenylsilyl)methyloxy]phenol], the response vs control in vivo at 0.1 % in data set [1] (rat serum, diet 0.1%, 4 days) came out at 70%. For the same molecule, the response vs control in vivo at 0.3 % in data set [1] (rat serum, diet 0.3%, 4 days) came out at 34%. For the same molecule, in the data set with ICAM-1, the ICAM-1 % inh. was determined as 80%. Moreover, the concentration at 96 h in data set [2] (setting [4]) amounted to 3000 ng/mL. For the same molecule, the “Liver Parent = parent compound concentration” value in data set [2] (rat liver, diet 0.1%) was found to be 0 µg/g; in data set [2] (rat liver, diet 0.3%) it was 0 µg/g. The “Serum Parent = parent compound concentration” value in data set [2] (rat serum, diet 0.1%) came out at 0 µg/mL.

Take `CN(C)c1ccc([Si](C)(C)COc2cc(C(C)(C)C)c(O)c(C(C)(C)C)c2)cc1` [MDL 104,556, 2,6-Di-t-butyl-4-[(4-N,N-dimethylaminophenyldimethylsilyl)methyloxy]phenol]: the response vs control in vivo at 0.1 % in data set [1] (rat serum, diet 0.1%, 4 days) worked out at 61%. The response vs control in vivo at 0.3 % in data set [1] (rat serum, diet 0.3%, 4 days) was determined as 34%. In the data set on ICAM-1, the ICAM-1 % inh. turned out to be 1.5%. Further, the concentration at 96 h in data set [2] (setting [5]) turned out to be 38700 ng/g; in data set [2] (setting [3]), 60300 ng/g; in data set [2] (setting [6]), 9200 ng/mL; in data set [2] (setting [4]), 16300 ng/mL.

Regarding `CC(C)(C)c1cc(OC[Si](C)(c2ccccc2)c2ccccc2)cc(C(C)(C)C)c1O` [MDL 104,599, 2,6-Di-t-butyl-4-[(diphenylmethylsilyl)methloxy]phenol], the response vs control in vivo at 0.3 % in data set [1] (rat serum, diet 0.3%, 4 days) came out at 34%. Further, the concentration at 96 h in data set [2] (setting [3]) amounted to 44900 ng/g; in data set [2] (setting [4]), 28300 ng/mL.

In the case of `CC(C)(C)c1cc(OC[Si](C)(C)c2ccccc2)c(C(C)(C)C)cc1O` [MDL 104,962, 2,5-Di-t-butyl-4-[(dimethylphenylsilyl)methyloxy]phenol], in data set [1] (rat serum, diet 0.3%, 4 days), the response vs control in vivo at 0.3 % worked out at 25%. Further, the concentration at 96 h is 43500 ng/g in data set [2] (setting [3]) and 16400 ng/mL in data set [2] (setting [4]).

As for `Cc1cc(OC[Si](C)(C)c2ccccc2)c(C)c(C)c1O` [MDL 105,314, 2,3,6-Trimethyl-4-[(dimethylphenylsdilyl)methloxy]phenol], the response vs control in vivo at 0.3 % in data set [1] (Rattus norvegicus) came out at 85%. The ICAM-1 % inh. with ICAM-1 is 75.5%. Besides, the “Liver Parent = parent compound concentration” value in data set [2] (rat liver, diet 0.3%) is 0.0 µg/g. Also, in data set [2] (rat serum, diet 0.3%), the “Serum Parent = parent compound concentration” value worked out at 0.0 µg/mL.

With `CC(=O)Oc1ccc(OC[Si](C)(C)c2ccccc2)cc1C(C)(C)C` [MDL 105,443, 2-t-Butyl-4-[(dimethylphenylsilyl)methyloxy]phenol acetic acid ester], the response vs control in vivo at 0.1 % in data set [1] (rat serum, diet 0.1%, 4 days) turned out to be 78%. Besides, the response vs control in vivo at 0.3 % in data set [1] (rat serum, diet 0.3%, 4 days) worked out at 14%. Besides, in the data set on ICAM-1, the ICAM-1 % inh. was found to be 73.0%. Moreover, the “Liver Parent = parent compound concentration” value in data set [2] (rat liver, diet 0.1%) is 0 µg/g; in data set [2] (rat liver, diet 0.3%), 0 µg/g. In addition, the “Serum Parent = parent compound concentration” value in data set [2] (rat serum, diet 0.1%) is 0 µg/mL; in data set [2] (rat serum, diet 0.3%), 0.0 µg/mL.

With `CC(C)(C)c1cc(OC[Si](C)(C)c2ccc(C(F)(F)F)cc2)cc(C(C)(C)C)c1O` [MDL 105,975, 2,6-Di-t-butyl-4-[(dimethyl-4-trifluoromethylphenylsilyl)methyloxy]phenol], the response vs control in vivo at 0.1 % in data set [1] (Rattus norvegicus) stood at 67%. Also, the response vs control in vivo at 0.3 % in data set [1] (Rattus norvegicus) came out at 24%. Also, the ICAM-1 % inh. with ICAM-1 is recorded as 2.5%. Besides, the concentration at 96 h in data set [2] (setting [5]) turned out to be 94500 ng/g; in data set [2] (setting [3]), 186000 ng/g; in data set [2] (setting [6]) it was 23800 ng/mL; in data set [2] (setting [4]), 35800 ng/mL.

On to `COc1ccc([Si](C)(C)COc2ccc(O)c(C(C)(C)C)c2)cc1` [MDL 106,834, 2-t-Butyl-4-[(dimethyl-p-methoxylphenylsilyl)methyloxy]phenol], for which the response vs control in vivo at 0.3 % in data set [1] (rat serum, diet 0.3%, 4 days) was found to be 31%. The values for the concentration at 96 h in data set [2] (setting [3]) and in data set [2] (setting [4]) were 2700 ng/g and 1800 ng/mL, respectively.
